From patent US20240228489A1, “POSITIVE ALLOSTERIC MODULATORS OF THE MUSCARINIC ACETYLCHOLINE RECEPTOR M1” (Vanderbilt University, priority 2021, published 2024)

Assays:
human mAChR M1 [1] = target: T1, human mAChR M1 (Homo sapiens, UniProt P11229); assay: mAChR M1 cell-based functional assay (calcium mobilization), PAM mode: increase in the EC20 acetylcholine response
T1 sequence (P11229 1-460): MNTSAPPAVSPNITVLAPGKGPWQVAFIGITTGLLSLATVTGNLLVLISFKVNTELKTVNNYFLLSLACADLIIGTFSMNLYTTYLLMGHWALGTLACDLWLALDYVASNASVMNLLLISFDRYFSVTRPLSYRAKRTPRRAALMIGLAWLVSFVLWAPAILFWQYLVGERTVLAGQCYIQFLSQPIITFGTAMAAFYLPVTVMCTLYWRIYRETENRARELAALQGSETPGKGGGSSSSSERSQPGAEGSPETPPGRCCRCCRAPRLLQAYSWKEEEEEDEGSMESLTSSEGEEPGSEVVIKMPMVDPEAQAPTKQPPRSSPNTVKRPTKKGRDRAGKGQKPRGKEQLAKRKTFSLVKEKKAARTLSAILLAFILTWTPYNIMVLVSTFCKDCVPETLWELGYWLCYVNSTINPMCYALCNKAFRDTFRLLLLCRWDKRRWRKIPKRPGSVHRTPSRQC
Outline: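 CHO-K1 cells stably expressing hM1, Fluo-4 loaded, read by FDSS calcium flux at 1 Hz. Compound (11-point 1:3 CRC) added at 4 s, EC20 acetylcholine at 144 s, EC80 at 230 s. PAM activity taken as concentration-dependent increase in EC20 ACh response, fitted by four-parameter logistic for EC50/Emax.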

human mAChR M1 [2] = target: T1, human mAChR M1; assay: mAChR M1 cell-based functional assay (calcium mobilization), agonist mode: compound alone, Emax relative to acetylcholine maximum; conditions: for Agonist Activity Human M1 EC50 / EC50: human mAChR M1; for Emax: relative to the maximum for acetylcholine
Outline: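 CHO-K1 cells stably expressing hM1 were loaded with Fluo-4 AM, and calcium flux was read as fluorescence ratio. Compound was added alone from an 11-point 1:3 curve, and the agonist response was fitted with a four-parameter logistic. Emax is expressed relative to the acetylcholine maximum.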

EC50 (human mAChR M1 [1]) [µM]	Emax (human mAChR M1 [1]) [%]	Agonist Activity Human M1 EC50 (human mAChR M1 [2])	Emax (human mAChR M1 [2]) [%]	EC50 (human mAChR M1 [2]) [µM]	Compound
0.686	71	Inactive	6	–	[2H]C1([2H])c2ncccc2C(=O)N1Cc1ccc(-c2ccc3nn(C)cc3c2)cc1F [Compound 9, 6-(2-fluoro-4-(2-methyl-2H-indazol-5-yl)benzyl)-6,7-dihydro-5H-pyrrolo[3,4-b]pyridin-5-one-7,7-d2]
0.837	75	–	11	≥ 10	[2H]C1([2H])c2ncccc2C(=O)N1Cc1c(F)cc(-c2ccc(OCC3CC3)c3nn(C)cc23)cc1F [Compound 138, 6-(4-(7-(cyclopropylmethoxy)-2-methyl-2H-indazol-4-yl)-2,6-difluorobenzyl)-6,7-dihydro-5H-pyrrolo[3,4-b]pyridin-5-one-7,7-d2]
2.17	74	Inactive	2	–	[2H]C1([2H])c2ncccc2C(=O)N1Cc1c(F)cc(-c2cccc3c2cnn3C2COC2)cc1F [Compound 66, 6-(2,6-difluoro-4-(1-(oxetan-3-yl)-1H-indazol-4-yl)benzyl)-6,7-dihydro-5H-pyrrolo[3,4-b]pyridin-5-one-7,7-d2]
0.325	84	–	9	> 10	[2H]C1([2H])c2ncccc2C(=O)N1Cc1ccc(-c2cccc3nn(C([2H])([2H])[2H])cc23)cc1F [Compound 53, 6-(2-fluoro-4-(2-(methyl-d3)-2H-indazol-4-yl)benzyl)-6,7-dihydro-5H-pyrrolo[3,4-b]pyridin-5-one-7,7-d2]
0.17	77	Inactive	1	–	[2H]C1([2H])c2ncccc2C(=O)N1Cc1c(F)cc(-c2ccc(Cl)c3nn(C([2H])([2H])[2H])cc23)cc1F [Compound 73, 6-(4-(7-chloro-2-(methyl-d3)-2H-indazol-4-yl)-2,6-difluorobenzyl)-6,7-dihydro-5H-pyrrolo[3,4-b]pyridin-5-one-7,7-d2]
0.744	73	–	23	> 10	[2H]C1([2H])c2ncccc2C(=O)N1Cc1c(F)cc(-c2cccn3nc(C)cc23)cc1F [Compound 235, 6-(2,6-Difluoro-4-(2-methylpyrazolo[1,5-a]pyridin-4-yl)benzyl)-6,7-dihydro-5H-pyrrolo[3,4-b]pyridin-5-one-7,7-d2]
1.36	68	Inactive	8	–	[2H]C1([2H])c2ncc(Br)cc2C(=O)N1Cc1c(F)cc(-c2cccc3nn(C)cc23)cc1F [Compound 61, 3-Bromo-6-(2,6-difluoro-4-(2-methyl-2H-indazol-4-yl)benzyl)-6,7-dihydro-5H-pyrrolo[3,4-b]pyridin-5-one-7,7-d2]
0.293	70	–	49	7.45	[2H]C1([2H])c2ncccc2C(=O)N1Cc1c(F)cc(-c2ccc(C)c3nn(C)cc23)cc1C1CC1 [Compound 204, 6-(2-cyclopropyl-4-(2,7-dimethyl-2H-indazol-4-yl)-6-fluorobenzyl)-6,7-dihydro-5H-pyrrolo[3,4-b]pyridin-5-one-7,7-d2]
0.769	83	–	62	2.58	[2H]C1([2H])c2ncccc2C(=O)N1Cc1c(F)cc(-c2ccc(OC)c3nn(C([2H])([2H])[2H])cc23)cc1C1CC1 [Compound 209, 6-(2-cyclopropyl-6-fluoro-4-(7-methoxy-2-(methyl-d3)-2H-indazol-4-yl)benzyl)-6,7-dihydro-5H-pyrrolo[3,4-b]pyridin-5-one-7,7-d2]
0.837	86	–	12	≥ 10	[2H]C1([2H])c2ncccc2C(=O)N1Cc1ccc(-c2ccc(OC[C@@H](C)OC)c3nn(C)cc23)cc1F [Compound 175, (R)-6-(2-fluoro-4-(7-(2-methoxypropoxy)-2-methyl-2H-indazol-4-yl)benzyl)-6,7-dihydro-5H-pyrrolo[3,4-b]pyridin-5-one-7,7-d2]
3.78	77	Inactive	1	–	[2H]C1([2H])c2ncccc2C(=O)N1Cc1c(F)cc(-c2cccc3nn(C([2H])([2H])[2H])cc23)cc1N1CCC1 [Compound 222, 6-(2-(azetidin-1-yl)-6-fluoro-4-(2-(methyl-d3)-2H-indazol-4-yl)benzyl)-6,7-dihydro-5H-pyrrolo[3,4-b]pyridin-5-one-7,7-d2]
1.32	60	Inactive	2	–	[2H]C1([2H])c2ncccc2C(=O)N1Cc1ccc(-c2ccc(OC3CN(C(=O)OC(C)(C)C)C3)c3nn(C)cc23)cc1F [Compound 176, tert-butyl 3-((4-(3-fluoro-4-((5-oxo-5,7-dihydro-6H-pyrrolo[3,4-b]pyridin-6-yl-7,7-d2)methyl)phenyl)-2-methyl-2H-indazol-7-yl)oxy)azetidine-1-carboxylate]
0.472	86	Inactive	8	–	[2H]C1([2H])c2ncccc2C(=O)N1Cc1c(Cl)cc(-c2cccc3nn(C([2H])([2H])[2H])cc23)cc1C1CC1 [Compound 220, 6-(2-chloro-6-cyclopropyl-4-(2-(methyl-d3)-2H-indazol-4-yl)benzyl)-6,7-dihydro-5H-pyrrolo[3,4-b]pyridin-5-one-7,7-d2]
7.58	58	Inactive	3	–	[2H]C1([2H])c2ncccc2C(=O)N1Cc1ccc(-c2cc3cn(C)nc3cc2C)cc1F [Compound 26, 6-(4-(2,6-dimethyl-2H-indazol-5-yl)-2-fluorobenzyl)-6,7-dihydro-5H-pyrrolo[3,4-b]pyridin-5-one-7,7-d2]
0.745	76	–	22	9.56	[2H]C([2H])([2H])c1cc2c(-c3cc(F)c(CN4C(=O)c5cccnc5C4([2H])[2H])c(F)c3)cccn2n1 [Compound 236, 6-(2,6-Difluoro-4-(2-(methyl-d3)pyrazolo[1,5-a]pyridin-4-yl)benzyl)-6,7-dihydro-5H-pyrrolo[3,4-b]pyridin-5-one-7,7-d2]
1.3	77	Inactive	6	–	[2H]C1([2H])c2ncccc2C(=O)N1Cc1ccc(-c2cccc3nn(C)cc23)cc1 [Compound 11, 6-(4-(2-methyl-2H-indazol-4-yl)benzyl)-6,7-dihydro-5H-pyrrolo[3,4-b]pyridin-5-one-7,7-d2]
> 10	12	Inactive	2	–	[2H]C1([2H])c2ncccc2C(=O)N1Cc1c(F)cc(-c2ccc(OC(F)(F)F)c3c2cnn3C([2H])([2H])[2H])cc1F [Compound 251, 6-(2,6-difluoro-4-(1-(methyl-d3)-7-(trifluoromethoxy)-1H-indazol-4-yl)benzyl)-6,7-dihydro-5H-pyrrolo[3,4-b]pyridin-5-one-7,7-d2]
3.6	69	Inactive	2	–	[2H]C1([2H])c2ncccc2C(=O)N1Cc1ccc(-c2cc3cn(C)nc3cc2F)cc1F [Compound 24, 6-(2-fluoro-4-(6-fluoro-2-methyl-2H-indazol-5-yl)benzyl)-6,7-dihydro-5H-pyrrolo[3,4-b]pyridin-5-one-7,7-d2]
